{"source": "ChEMBL document CHEMBL1124679", "about": "“A novel lead for specific anti-HIV-1 agents: 1-[(2-hydroxyethoxy)methyl]-6-(phenylthio)thymine” (J Med Chem, 1989)", "note": "pEC50, pIC50: −log10 of the molar value.", "data": [{"system": "MT4", "test": "Concentration required to achieve 50% protection of MT-4 cells against cytopathic effect of HIV-1", "type": "functional, cell-based", "settings": "Homo sapiens", "values": [{"smiles": "Nc1ncnc2c1ncn2[C@H]1CC[C@@H](CO)O1", "pEC50": 5.20}, {"smiles": "O=c1cc(Sc2ccccc2)n(COCCO)c(=O)[nH]1", "pEC50": "< 3.30"}, {"smiles": "O=c1[nH]c(=O)n(COCCO)c(Sc2ccccc2)c1F", "pEC50": "< 4.00"}, {"smiles": "O=c1cc(I)n(COCCO)c(=O)[nH]1", "pEC50": "< 4.52"}, {"smiles": "Cc1c(I)n(COCCO)c(=O)[nH]c1=O", "pEC50": "< 4.10"}, {"smiles": "O=c1[nH]c(=O)n(COCCO)c(Sc2ccccc2)c1Br", "pEC50": "< 4.70"}, {"smiles": "Cc1cn([C@H]2C[C@H](N=[N+]=[N-])[C@@H](CO)O2)c(=O)[nH]c1=O", "note": "[ZIDOVUDINE]", "pEC50": 7.80}, {"smiles": "O=c1[nH]c(=O)n(COCCO)c(Sc2ccccc2)c1Cl", "pEC50": "< 4.52"}, {"smiles": "Cc1c(Sc2ccccc2)n(COCCO)c(=O)[nH]c1=O", "note": "[HEPT]", "pEC50": 5.15}, {"smiles": "O=c1[nH]c(=O)n(COCCO)c(I)c1Cl", "pEC50": "< 5.22"}, {"smiles": "Nc1ccn([C@H]2CC[C@@H](CO)O2)c(=O)n1", "note": "[ZALCITABINE]", "pEC50": 6.52}, {"smiles": "O=c1[nH]c(=O)n(COCCO)c(I)c1F", "pEC50": "< 4.82"}, {"smiles": "O=c1[nH]c(=O)n(COCCO)c(I)c1Br", "pEC50": "< 5.30"}]}, {"system": "MT4", "test": "Cytotoxic concentration of compound required to reduce the viability of mock-infected MT-4 cells by 50%", "type": "functional", "settings": "Homo sapiens", "units": {"CC50": "µM"}, "values": [{"smiles": "Nc1ncnc2c1ncn2[C@H]1CC[C@@H](CO)O1", "CC50": 890}, {"smiles": "O=c1cc(Sc2ccccc2)n(COCCO)c(=O)[nH]1", "CC50": 1850}, {"smiles": "O=c1[nH]c(=O)n(COCCO)c(Sc2ccccc2)c1F", "CC50": 288}, {"smiles": "O=c1cc(I)n(COCCO)c(=O)[nH]1", "CC50": 75}, {"smiles": "Cc1c(I)n(COCCO)c(=O)[nH]c1=O", "CC50": 400}, {"smiles": "O=c1[nH]c(=O)n(COCCO)c(Sc2ccccc2)c1Br", "CC50": 44}, {"smiles": "Cc1cn([C@H]2C[C@H](N=[N+]=[N-])[C@@H](CO)O2)c(=O)[nH]c1=O", "note": "[ZIDOVUDINE]", "CC50": 20}, {"smiles": "O=c1[nH]c(=O)n(COCCO)c(Sc2ccccc2)c1Cl", "CC50": 100}, {"smiles": "Cc1c(Sc2ccccc2)n(COCCO)c(=O)[nH]c1=O", "note": "[HEPT]", "CC50": 740}, {"smiles": "O=c1[nH]c(=O)n(COCCO)c(I)c1Cl", "CC50": 13}, {"smiles": "Nc1ccn([C@H]2CC[C@@H](CO)O2)c(=O)n1", "note": "[ZALCITABINE]", "CC50": 40}, {"smiles": "O=c1[nH]c(=O)n(COCCO)c(I)c1F", "CC50": 32}, {"smiles": "O=c1[nH]c(=O)n(COCCO)c(I)c1Br", "CC50": 11.5}]}, {"system": "not listed separately", "test": "Selectivity index is the ratio of CC50/EC50", "type": "functional", "settings": "not given", "values": [{"smiles": "Nc1ncnc2c1ncn2[C@H]1CC[C@@H](CO)O1", "SI": 141}, {"smiles": "O=c1cc(Sc2ccccc2)n(COCCO)c(=O)[nH]1", "SI": "< 3.7"}, {"smiles": "O=c1[nH]c(=O)n(COCCO)c(Sc2ccccc2)c1F", "SI": "< 2.9"}, {"smiles": "O=c1cc(I)n(COCCO)c(=O)[nH]1", "SI": "< 2.5"}, {"smiles": "Cc1c(I)n(COCCO)c(=O)[nH]c1=O", "SI": "< 5"}, {"smiles": "O=c1[nH]c(=O)n(COCCO)c(Sc2ccccc2)c1Br", "SI": "< 2.2"}, {"smiles": "Cc1cn([C@H]2C[C@H](N=[N+]=[N-])[C@@H](CO)O2)c(=O)[nH]c1=O", "note": "[ZIDOVUDINE]", "SI": 1250}, {"smiles": "O=c1[nH]c(=O)n(COCCO)c(Sc2ccccc2)c1Cl", "SI": "< 3.4"}, {"smiles": "O=c1[nH]c(=O)n(COCCO)c(I)c1Cl", "SI": "< 2.2"}, {"smiles": "Nc1ccn([C@H]2CC[C@@H](CO)O2)c(=O)n1", "note": "[ZALCITABINE]", "SI": 133}, {"smiles": "O=c1[nH]c(=O)n(COCCO)c(I)c1F", "SI": "< 2.1"}, {"smiles": "O=c1[nH]c(=O)n(COCCO)c(I)c1Br", "SI": "< 2.3"}]}, {"target": "T1, Human immunodeficiency virus type 1 reverse transcriptase (Human immunodeficiency virus 1, UniProt Q72547)", "test": "Inhibitory effect on HIV-1 reverse transcriptase activity using poly(rC)-oligo(dG) template primer", "settings": "not given", "values": [{"smiles": "Cc1c(Sc2ccccc2)n(COCCO)c(=O)[nH]c1=O", "note": "[HEPT]", "pIC50": 3.82}, {"smiles": "Cc1c(Sc2ccccc2)n(COCCOP(=O)(O)P(=O)(O)P(=O)(O)O)c(=O)[nH]c1=O", "pIC50": 3.30}]}, {"target": "T1, Human immunodeficiency virus type 1 reverse transcriptase", "test": "Inhibitory effect on HIV-1 reverse transcriptase activity using poly(rA)-oligo(dT) template primer", "settings": "not given", "values": [{"smiles": "Cc1cn(C2CC(N=[N+]=[N-])C(COP(=O)(O)P(=O)(O)P(=O)(O)O)O2)c(=O)[nH]c1=O", "note": "(stereo not drawn)", "pIC50": 7.47}, {"smiles": "Cc1c(Sc2ccccc2)n(COCCO)c(=O)[nH]c1=O", "note": "[HEPT]", "pIC50": "< 3.30"}, {"smiles": "Cc1c(Sc2ccccc2)n(COCCOP(=O)(O)P(=O)(O)P(=O)(O)O)c(=O)[nH]c1=O", "pIC50": 3.55}]}]}
